Assay [1] concerns isolated rat islets. Nature of the assay: Recovery of intact islets after cryopreservation and thawing (islet counting after Dithizone staining). The class given is cell-based. More on the design: key: Severe = +++; Mild = +. The conditions noted are these: 2M DMSO, 3M glycerol, 5% PEG or 10% PVP. On the procedure: (§1) The present invention is based on the hypothesis that the low molecular weight (MW) compounds, DMSO and glycerol, permeate the cell and interact hydrophobically with intracellular proteins thereby perturbing the cyto-skeletal architecture of frozen cells, and diminishing islet cell integrity and function. Isolated rat islets were cultured overnight (16-24 hr) at 37° C., in RPMI medium supplemented with 10% fetal calf serum and 1% mixture of Penicillin/Streptomycin. Using a programmable temperature controller, samples of pre-counted islets were then frozen under liquid nitrogen, in the presence of either 2M DMSO (MW=0.078 kD), 3M glycerol (MW=0.092 kD), 5% polyethylene glycol (PEG, MW=20 kD), or 10% polyvinylpyrrolidone (PVP, MW=40 kD), and stored at −80° C. for 1 week. Following thawing, intact islet recovery was determined by islet counting after Dithizone staining. Islet function was assessed by determination of glucose-stimulated insulin secretion in perifusion experiments with Krebs-Ringer bicarbonate buffer, pH 7.4, containing either basal (3.3 mM) or high (16.7 mM) glucose concentrations. After thawing samples of frozen islets, the mean±SEM % intact islet recovery was higher with PVP compared to DMSO (82±4.6 versus 62.7±3.1% respectively, p<0.005, n=9). […]

Assay [2] concerns isolated rat islets. Kind of assay: Glucose-stimulated insulin secretion by perifused islets after cryopreservation. Type of assay: cell-based. On the procedure: FIG. 2 graphs glucose stimulation of insulin secretion in islets cryopreserved with different cryoprotectants. After one week of cryopreservation, islets were thawed and cultured overnight before being tested for response to 16.7 mM glucose stimulation. The 16.7 mM glucose stimulated insulin secretion was assessed by normalizing data as percent basal insulin secretion for each group of islets. Data represent mean±SEM.
as §1, with “Isolated rat islets were cultured overnight (16-24 hr) at 37° C., in RPMI medium supplemented with 10% fetal calf serum and 1% mixture of Penicillin/Streptomycin.” left out, “concentrations.” for “concentrations. After thawing samples of frozen islets, the mean±SEM % intact islet recovery was higher with PVP compared to DMSO (82±4.6 versus 62.7±3.1% respectively, p<0.005, n=9).”

In another assay the test system is islets. The conditions noted are these: DMSO as cryoprotectant, compared to freshly isolated islets; cited from earlier work.

As to `OCC(O)CO` [GLY, glycerol], in the assay with isolated rat islets [1], the “Fragment (fragmentation of islets after thawing)” value is recorded as “+++”. Also, the “function of cryopreserved islets compared to freshly isolated islets” value in the assay with isolated rat islets [2] is reported as “impaired”.
`C[S+](C)[O-]` [DMSO, Dimethylsulfoxide]: the “Fragment (fragmentation of islets after thawing)” value in the assay with isolated rat islets [1] is reported as “+++”. Also, in the assay on islets, the “loss in the number and function of islets after thawing” value was 30-50%. Moreover, the “function of cryopreserved islets compared to freshly isolated islets” value in the assay with isolated rat islets [2] is “impaired”.
